Source: patent publication US20250230193A1, “CYCLIC COMPOUND HAVING SELECTIVE KRAS INHIBITORY EFFECT ON HRAS AND NRAS” (CHUGAI SEIYAKU KABUSHIKI KAISHA, priority 2022, published 2025)

Columns and labels:
[1] = target: GDP-bound HRAS wild-type protein (Homo sapiens, UniProt P01112); assay: Binding to HRAS by surface plasmon resonance (SPR), Single Cycle Kinetics; details: SPR; for HRAS/KRAS (ratio of KD value for HRAS to KD value for KRAS): GDP-bound HRAS wild-type vs GDP-bound KRAS wild-type
[2] = target: GDP-bound NRAS wild-type protein (Homo sapiens, UniProt P01111); assay: Binding to NRAS by surface plasmon resonance (SPR), Single Cycle Kinetics; details: SPR; for NRAS/KRAS (ratio of KD value for NRAS to KD value for KRAS): GDP-bound NRAS wild-type vs GDP-bound KRAS wild-type
Sequence of GDP-bound NRAS wild-type protein (P01111 whole entry): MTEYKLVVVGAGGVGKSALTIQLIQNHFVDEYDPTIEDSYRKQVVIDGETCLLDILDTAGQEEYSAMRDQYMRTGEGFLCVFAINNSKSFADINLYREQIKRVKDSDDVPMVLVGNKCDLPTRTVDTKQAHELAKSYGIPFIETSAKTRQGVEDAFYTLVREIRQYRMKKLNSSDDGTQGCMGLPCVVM

Sequence of GDP-bound HRAS wild-type protein (P01112 whole entry): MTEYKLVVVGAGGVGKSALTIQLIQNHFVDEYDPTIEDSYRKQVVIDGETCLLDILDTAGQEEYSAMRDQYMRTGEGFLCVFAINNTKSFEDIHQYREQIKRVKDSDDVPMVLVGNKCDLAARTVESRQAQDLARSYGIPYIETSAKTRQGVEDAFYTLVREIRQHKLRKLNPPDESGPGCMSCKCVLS

Structure (SMILES)	HRAS/KRAS (ratio of KD value for HRAS to KD value for KRAS) [1]	NRAS/KRAS (ratio of KD value for NRAS to KD value for KRAS) [2]	other results
CCO[C@@H]1C[C@H]2C(=O)NC3(CCC3)C(=O)N(C)[C@@H](C3CCCC3)C(=O)N(C)[C@H](C(=O)N(CC)CC)CC(=O)N(C)[C@@H](CC(C)C)C(=O)N[C@@H]([C@@H](C)CC)C(=O)N(C)CC(=O)N(C)[C@H]3C/C=C\CCN(C3=O)[C@@H](Cc3ccc(C(F)(F)F)cc3)C(=O)N(C)CC(=O)N[C@@H](CCc3cc(F)c(C(F)(F)F)c(F)c3)C(=O)N2C1 [PP1306]	–	–	HRAS/KRAS (ratio of KD value for GDP-bound HRAS wild-type protein to KD value for KRAS) ([1]; KD ratio class): A (a compound having 10 or more and less than 20 is denoted as A); NRAS/KRAS (ratio of KD value for GDP-bound NRAS wild-type protein to KD value for KRAS) ([2]; KD ratio class): AA (a compound having 20 or more is denoted as AA)
CC[C@H](C)[C@@H]1NC(=O)[C@H](CC(C)C)N(C)C(=O)C[C@@H](C(=O)N2CCOCC2)N(C)C(=O)[C@H](C2CCCC2)N(C)C(=O)C2(CCCC2)NC(=O)[C@@H]2CCCN2C(=O)[C@H](CCc2ccc(C(F)(F)F)c(Cl)c2)NC(=O)CN(C)C(=O)[C@H](Cc2ccc(OC)cc2)N2CC=CC[C@@H](C2=O)N(C)C(=O)CN(C)C1=O [PP0535]	–	–	HRAS/KRAS (ratio of KD value with respect to GDP-bound HRAS wild-type protein to KD value with respect to KRAS) [1]: B (a compound having 3 or more and less than 10 is denoted as B); NRAS/KRAS (ratio of KD value with respect to GDP-bound NRAS wild-type protein to KD value with respect to KRAS) [2]: C (A compound having a KD ratio of 0.1 or more and less than 3 is denoted as C)
CC[C@H](C)[C@@H]1NC(=O)[C@@H]2CCCc3ccc(cc3)C[C@@H](C(=O)N(C)CC(=O)N[C@@H](CCc3ccc(C(F)(F)F)c(OC)c3)C(=O)N3C[C@H](OC(C)C)C[C@H]3C(=O)NC3(CC(C)(C)C3)C(=O)N(C)[C@@H](C3CCCC3)C(=O)N(C)[C@H](C(=O)N(C)CC)CC(=O)N2C)N2CC/C=C\C[C@@H](C2=O)N(C)C(=O)CN(C)C1=O [PP3084]	–	–	HRAS/KRAS (ratio of KD value with respect to GDP-bound HRAS wild-type protein to KD value with respect to KRAS) ([1]; GDP-bound wild-type proteins): B (a compound having 3 or more and less than 10 is denoted as B); NRAS/KRAS (ratio of KD value with respect to GDP-bound NRAS wild-type protein to KD value with respect to KRAS) ([2]; GDP-bound wild-type proteins): A (a compound having 10 or more and less than 20 is denoted as A)
CC[C@H](C)[C@@H]1NC(=O)[C@H](CC(C)C)N(C)C(=O)C[C@@H](C(=O)N(C)CC)N(C)C(=O)[C@H](C2CCCC2)N(C)C(=O)C2(CC(C)(C)C2)NC(=O)[C@@H]2C[C@H](C)CN2C(=O)[C@H](CCc2ccc(C(F)(F)F)c(OC)c2)NC(=O)CN(C)C(=O)[C@H](Cc2ccc(C)cc2)N2CC/C=C\C[C@@H](C2=O)N(C)C(=O)CN(C)C1=O [PP1906]	A (a compound having 10 or more and less than 20 is denoted as A)	A (a compound having 10 or more and less than 20 is denoted as A)	–
CC[C@H](C)[C@@H]1NC(=O)[C@H](C(C)C)N(C)C(=O)C[C@@H](C(=O)N(C)CC)N(C)C(=O)[C@H](C2CCCC2)N(C)C(=O)C2(CC(C)(C)C2)NC(=O)[C@@H]2C[C@H](C)CN2C(=O)[C@H](CCc2cc(F)c(C(F)(F)F)c(F)c2)NC(=O)CN(C)C(=O)[C@H](Cc2ccc(C(F)(F)F)cc2)N2CC/C=C\C[C@@H](C2=O)N(C)C(=O)CN(C)C1=O [PP1976]	A (a compound having 10 or more and less than 20 is denoted as A)	AA (a compound having 20 or more is denoted as AA)	–
C#CC[C@H]1C(=O)N[C@@H]([C@@H](C)CC)C(=O)N(C)CC(=O)N(C)[C@H]2C/C=C\CCN(C2=O)[C@@H](Cc2ccc(C(F)(F)F)cc2)C(=O)N(C)CC(=O)N[C@@H](CCc2cc(F)c(C(F)(F)F)c(F)c2)C(=O)N2C[C@H](OCC)C[C@H]2C(=O)NC2(CCC2)C(=O)N(C)[C@@H](C2CCCC2)C(=O)N(C)[C@H](C(=O)N(C)CCC)CC(=O)N1C [PP1703]	A (a compound having 10 or more and less than 20 is denoted as A)	A (a compound having 10 or more and less than 20 is denoted as A)	–
